Laboratory results as given in patent US20040072206A1, “Method for identifying modulators of transcription” (priority 2000, published 2004).
Positions of bridges follow the written chain, without caps; N, C: chain ends. Non-standard residues stand in square brackets, D forms with d. Residues, ends and D or L forms follow the SMILES beside them. *: point of attachment. Ileψ(thiazoline)Cys = CC[C@H](C)[C@H](N)C1=N[C@H](C(=O)*)CS1; dOrn = NCCC[C@@H](N)C(=O)O

Target: T1, B. subtilis RNAP (Bacillus subtilis, UniProt P37870+P37871)
T1 construct: endogenous in cells; host or cells: Bacillus subtilis strain PL37 (built from strain 168)
T1 sequence (P37871 whole entry): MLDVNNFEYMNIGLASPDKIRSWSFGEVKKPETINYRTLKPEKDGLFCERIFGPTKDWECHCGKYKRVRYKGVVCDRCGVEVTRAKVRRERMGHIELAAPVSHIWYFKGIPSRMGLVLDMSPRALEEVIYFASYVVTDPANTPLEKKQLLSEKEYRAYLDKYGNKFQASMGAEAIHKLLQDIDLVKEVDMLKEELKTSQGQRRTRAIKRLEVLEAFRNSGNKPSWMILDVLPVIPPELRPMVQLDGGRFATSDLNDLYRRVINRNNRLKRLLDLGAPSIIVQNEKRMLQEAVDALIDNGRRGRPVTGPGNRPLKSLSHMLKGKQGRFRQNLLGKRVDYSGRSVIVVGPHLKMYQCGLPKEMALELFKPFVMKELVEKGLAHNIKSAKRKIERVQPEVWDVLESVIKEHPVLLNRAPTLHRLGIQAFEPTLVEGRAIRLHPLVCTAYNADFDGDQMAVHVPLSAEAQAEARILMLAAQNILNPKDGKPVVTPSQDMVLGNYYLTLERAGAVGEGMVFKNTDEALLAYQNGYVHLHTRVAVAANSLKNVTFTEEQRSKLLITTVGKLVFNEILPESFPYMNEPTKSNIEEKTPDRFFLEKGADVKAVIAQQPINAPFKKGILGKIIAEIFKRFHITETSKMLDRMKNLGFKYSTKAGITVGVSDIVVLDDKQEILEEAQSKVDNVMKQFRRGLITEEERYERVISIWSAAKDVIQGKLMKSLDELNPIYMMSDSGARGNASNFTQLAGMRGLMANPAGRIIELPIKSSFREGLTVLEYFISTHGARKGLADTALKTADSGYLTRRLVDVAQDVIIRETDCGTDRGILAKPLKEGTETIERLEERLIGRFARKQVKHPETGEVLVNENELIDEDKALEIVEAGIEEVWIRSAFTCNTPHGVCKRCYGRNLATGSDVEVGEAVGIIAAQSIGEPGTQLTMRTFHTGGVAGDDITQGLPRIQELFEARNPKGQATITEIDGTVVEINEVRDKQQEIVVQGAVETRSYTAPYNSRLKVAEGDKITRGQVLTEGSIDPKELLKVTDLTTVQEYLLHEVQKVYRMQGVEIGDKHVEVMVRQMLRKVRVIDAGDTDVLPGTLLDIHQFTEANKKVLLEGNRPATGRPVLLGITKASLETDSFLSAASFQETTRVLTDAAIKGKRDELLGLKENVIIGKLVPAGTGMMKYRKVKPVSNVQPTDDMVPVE
T1 sequence (P20429 whole entry, further chain): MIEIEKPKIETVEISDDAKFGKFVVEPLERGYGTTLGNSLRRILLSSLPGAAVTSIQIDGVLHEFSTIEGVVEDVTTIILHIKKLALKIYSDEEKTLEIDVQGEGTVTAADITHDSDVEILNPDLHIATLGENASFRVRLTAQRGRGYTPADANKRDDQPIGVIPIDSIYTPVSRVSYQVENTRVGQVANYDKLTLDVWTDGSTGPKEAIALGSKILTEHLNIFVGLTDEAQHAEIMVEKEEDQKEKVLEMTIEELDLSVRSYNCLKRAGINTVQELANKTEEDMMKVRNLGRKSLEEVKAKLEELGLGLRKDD
T1 sequence (O35011 whole entry, further chain): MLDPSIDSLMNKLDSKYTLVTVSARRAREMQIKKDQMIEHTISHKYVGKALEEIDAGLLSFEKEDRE
T1 sequence (P37870 whole entry): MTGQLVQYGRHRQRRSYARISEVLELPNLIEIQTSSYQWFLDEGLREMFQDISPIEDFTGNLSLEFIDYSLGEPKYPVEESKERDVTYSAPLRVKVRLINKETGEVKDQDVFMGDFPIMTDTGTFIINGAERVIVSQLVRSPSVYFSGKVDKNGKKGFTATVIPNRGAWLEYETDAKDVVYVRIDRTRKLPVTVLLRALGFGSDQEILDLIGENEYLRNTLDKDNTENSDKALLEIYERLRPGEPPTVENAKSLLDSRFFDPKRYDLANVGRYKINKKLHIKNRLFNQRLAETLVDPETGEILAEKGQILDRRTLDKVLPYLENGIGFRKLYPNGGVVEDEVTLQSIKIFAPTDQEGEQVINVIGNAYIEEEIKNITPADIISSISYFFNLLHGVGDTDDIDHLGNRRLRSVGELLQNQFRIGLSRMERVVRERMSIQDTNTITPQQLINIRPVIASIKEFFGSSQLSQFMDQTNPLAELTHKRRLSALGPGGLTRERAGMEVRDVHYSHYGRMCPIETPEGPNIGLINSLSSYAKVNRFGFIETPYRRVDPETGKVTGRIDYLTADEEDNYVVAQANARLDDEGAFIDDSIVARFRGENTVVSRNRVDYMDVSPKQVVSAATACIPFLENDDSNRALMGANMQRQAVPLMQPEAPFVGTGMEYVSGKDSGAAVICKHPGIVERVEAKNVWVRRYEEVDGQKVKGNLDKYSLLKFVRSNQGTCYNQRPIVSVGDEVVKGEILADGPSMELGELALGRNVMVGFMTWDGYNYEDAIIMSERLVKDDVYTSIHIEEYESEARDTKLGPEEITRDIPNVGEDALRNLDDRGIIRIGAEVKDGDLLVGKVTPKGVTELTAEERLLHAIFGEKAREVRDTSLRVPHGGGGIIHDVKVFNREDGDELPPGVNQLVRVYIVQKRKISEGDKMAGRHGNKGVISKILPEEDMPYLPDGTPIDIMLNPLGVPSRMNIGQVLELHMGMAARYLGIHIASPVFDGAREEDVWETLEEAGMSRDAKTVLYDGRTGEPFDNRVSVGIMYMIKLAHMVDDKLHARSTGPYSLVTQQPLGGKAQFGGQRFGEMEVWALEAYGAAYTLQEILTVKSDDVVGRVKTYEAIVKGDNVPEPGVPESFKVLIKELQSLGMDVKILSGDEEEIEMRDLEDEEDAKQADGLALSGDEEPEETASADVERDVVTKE
Assay: Dual reporter assay in strain PL37: test reporter Pxyl-lacZ and ratio of control to test reporter (RES:MUG)
Type: cell-based
Settings: strain PL37, DMSO control […]
Description: 20 known antibiotics were tested at a range of concentrations to determine their effect on test and control reporters within the assay. […] Cultures of PL37 grown in PAB, were diluted to 0.05 A600 and then grown for 2 hours at 37° C. in PAB supplemented with 0.02 mM IPTG. Cells were pelleted and frozen. They were later resuspended and diluted in PAB supplemented with 0.02 mM IPTG and grown at 37° C. to early exponential phase. Cultures were then diluted to 0.05 A600 in PAB and added in 20 μl volumes to wells of microtitre plates containing 20 μl volumes of the antibiotics. Plates were incubated at 37° C. for two hours, and assay mix was added to detect reporter enzyme activity (see below).
Following the addition of 160 μl of assay mix (1.3×Z buffer containing 94 μg/ml lysozyme, 8.4 μg/ml 4-methylumbelliferyl-β-D-galactoside, 0.53 μg/ml resorufin-β-D-glucuronide and 0.05% Triton) to each well, the microtitre plate was incubated in the dark for 30 mini or 1 hour at room temperature. Fluorescence was read on a BMG FLUOstar Galaxy at excitation/emission 355/460 nm and 544/590 nm, respectively, with gains set at 5 and 25, respectively.

[1] = Dilution Number 11 (lowest concentration tested: 0.125, 0.016 or 0.0005 μg/ml depending on antibiotic)
[2] = Dilution Number 1 (highest concentration tested: 128, 16 or 0.5 μg/ml depending on antibiotic)

Row | SMILES | Ratio of the control reporter (RES): test reporter (MUG) (Dilution Number 9) | Ratio of the control reporter (RES): test reporter (MUG) (Dilution Number 10) | Ratio of the control reporter (RES): test reporter (MUG) [1] | Ratio of the control reporter (RES): test reporter (MUG) [2] | Ratio of the control reporter (RES): test reporter (MUG) (Dilution Number 2) | Ratio of the control reporter (RES): test reporter (MUG) (Dilution Number 3) | Ratio of the control reporter (RES): test reporter (MUG) (Dilution Number 4) | Ratio of the control reporter (RES): test reporter (MUG) (Dilution Number 5) | Ratio of the control reporter (RES): test reporter (MUG) (Dilution Number 6) | Ratio of the control reporter (RES): test reporter (MUG) (Dilution Number 7) | Ratio of the control reporter (RES): test reporter (MUG) (Dilution Number 8)
1 | CC1(C)S[C@@H]2[C@H](NC(=O)[C@H](N)c3ccccc3)C(=O)N2[C@H]1C(=O)O [Ampicillin] | 1.16 | 1.02 | 1.06 |  |  |  |  |  |  |  | 
2 | CC[C@H](C)[C@H](N)C1=N[C@H](C(=O)N[C@@H](CC(C)C)C(=O)N[C@H](CCC(=O)O)C(=O)N[C@H](C(=O)N[C@H]2CCCCNC(=O)[C@H](CC(N)=O)NC(=O)[C@@H](CC(=O)O)NC(=O)[C@H](Cc3cnc[nH]3)NC(=O)[C@@H](Cc3ccccc3)NC(=O)[C@H]([C@@H](C)CC)NC(=O)[C@@H](CCCN)NC2=O)[C@@H](C)CC)CS1 [Bacitracin] ({Ileψ(thiazoline)Cys}-L[dE]IK[dOrn]I[dF]H[dD]N; lactam 4-C) | 1.09 | 1.12 | 1.13 | 1.32 | 1.15 | 1.12 | 1.11 | 1.14 | 1.13 | 1.09 | 1.09
3 | CC1(C)S[C@@H]2[C@H](NC(=O)C(C(=O)O)c3ccccc3)C(=O)N2[C@H]1C(=O)O (stereo partly drawn) [Carbenicillin] | 1.00 | 1.05 | 1.07 | 1.37 | 1.49 | 1.59 | 1.63 | 1.66 | 1.64 | 1.60 | 1.03
4 | CC1=C(C(=O)O)N2C(=O)[C@@H](NC(=O)[C@H](N)c3ccccc3)[C@H]2SC1 [Cephalexin] |  |  |  | 1.73 | 1.78 | 1.76 | 1.62 | 1.68 | 1.81 |  | 
5 | O=C(N[C@H](CO)[C@H](O)c1ccc([N+](=O)[O-])cc1)C(Cl)Cl [Chloramphenicol] | 1.14 | 1.13 | 1.17 | 1.10 | 1.22 | 1.27 | 1.40 | 1.90 | 1.51 | 1.20 | 1.16
6 | CC[C@H]1OC(=O)[C@H](C)[C@@H](O[C@H]2C[C@@](C)(OC)[C@@H](O)[C@H](C)O2)[C@H](C)[C@@H](O[C@@H]2O[C@H](C)C[C@H](N(C)C)[C@H]2O)[C@](C)(O)C[C@@H](C)C(=O)[C@H](C)[C@@H](O)[C@]1(C)O [Erythromycin] | 1.56 |  |  |  |  |  | 1.45 | 1.58 | 1.72 | 1.73 | 1.71
